Measurements: ChEMBL document CHEMBL4651402, “Screening of ~5500 FDA-approved drugs and clinical candidates for anti-SARS-CoV-2 activity” (2021)

System: SARS-CoV-2
Assay: microbe, parasite or virus in culture
Settings: Severe acute respiratory syndrome coronavirus 2, Vero C1008, 48 h

SMILES | IC50 | IC50 (read-out: pIC50 (converted))
CCC1(CC)C(=O)NC(=O)NC1=O [BARBITAL] | > 20 µM | > 20 µM
COC(=O)[C@]12CCC(C)(C)C[C@H]1[C@H]1C(=O)C=C3[C@@]4(C)C=C(C#N)C(=O)C(C)(C)[C@@H]4CC[C@@]3(C)[C@]1(C)CC2 [BARDOXOLONE METHYL] | > 20 µM | > 20 µM
Cc1nc2ccccn2c(=O)c1CCN1CCC(Nc2nc3cccnc3n2Cc2ccco2)CC1 [BARMASTINE] | > 20 µM | > 20 µM
CCN(CC)CCNC(=O)c1cc(Cl)c(N)cc1OC(C)C(C)=O (centres undefined) [BATANOPRIDE] | > 20 µM | > 20 µM
CC(C)(C)c1ccc(OC(=O)[C@H]2CC[C@H](CNC(=N)N)CC2)cc1 [BATEBULAST] | > 20 µM | > 20 µM
O=C(CCCl)NCc1ccccc1 [BECLAMIDE] | > 20 µM | > 20 µM
C[C@H]1C[C@H]2[C@@H]3CCC4=CC(=O)C=C[C@]4(C)[C@@]3(Cl)[C@@H](O)C[C@]2(C)[C@@]1(O)C(=O)CO [BECLOMETHASONE] | > 20 µM | > 20 µM
COc1nc2ccc(Br)cc2cc1[C@@H](c1ccccc1)[C@@](O)(CCN(C)C)c1cccc2ccccc12 [BEDAQUILINE] | > 20 µM | > 20 µM
O=C(c1cc2ccccc2o1)N1CCN(Cc2ccccc2)CC1 [BEFURALINE] | > 20 µM | > 20 µM
CCCCCCCCCCCCCCCCCCCCCC(=O)O [BEHENIC ACID] | > 20 µM | > 20 µM
O=C(/C=C/c1cccc(S(=O)(=O)Nc2ccccc2)c1)NO [BELINOSTAT] | > 20 µM | > 20 µM
CCO[C@@H]1OC(=O)C[C@@H]1NC(=O)[C@@H]1CCCN1C(=O)[C@@H](NC(=O)c1ccc(N)c(Cl)c1)C(C)(C)C [BELNACASAN] | > 20 µM | > 20 µM
CC[C@@]1(O)C(=O)OCc2c1cc1n(c2=O)Cc2c-1nc1ccccc1c2CCNC(C)C [BELOTECAN] | > 20 µM | > 20 µM
CC(C)NC(=O)COc1cccc(-c2nc(Nc3ccc4[nH]ncc4c3)c3ccccc3n2)c1 [BELUMOSUDIL] | > 20 µM | > 20 µM
CCC1(C)CC(=O)NC(=O)C1 [BEMEGRIDE] | > 20 µM | > 20 µM
CN1[C@@H]2CC[C@H]1C[C@@H](OC(=O)c1cc(Cl)cc(Cl)c1)C2 [BEMESETRON] | > 20 µM | > 20 µM
CCN(CC)CCOC(=O)C(O)(c1ccccc1)c1ccccc1 [BENACTYZINE] | > 20 µM | > 20 µM
CCOC(=O)[C@H](CCc1ccccc1)N[C@H]1CCc2ccccc2N(CC(=O)O)C1=O [BENAZEPRIL] | > 20 µM | > 20 µM
CN(C)CCCOC1(Cc2ccccc2)CCCCCC1 [BENCYCLANE] | > 20 µM | > 20 µM
O=C(O)COc1nn(Cc2ccccc2)c2ccccc12 [BENDAZAC] | > 20 µM | > 20 µM
NS(=O)(=O)c1cc2c(cc1C(F)(F)F)NC(Cc1ccccc1)NS2(=O)=O (centres undefined) [BENDROFLUMETHIAZIDE] | > 20 µM | > 20 µM
CC(Cc1cccc(C(F)(F)F)c1)NCCOC(=O)c1ccccc1 (centres undefined) [BENFLUOREX] | > 20 µM | > 20 µM
C/C(=C(\CCOP(=O)(O)O)SC(=O)c1ccccc1)N(C=O)Cc1cnc(C)nc1N [BENFOTIAMINE] | > 20 µM | > 20 µM
CC(C(=O)O)c1ccc2oc(-c3ccc(Cl)cc3)nc2c1 (centres undefined) [BENOXAPROFEN] | > 20 µM | > 20 µM

SMILES | IC50 | IC50 (read-out: pIC50 (converted))
CCCCOc1cc(C(=O)OCCN(CC)CC)ccc1N [BENOXINATE] | > 20 µM | > 20 µM
O=C(CCCN1CCC(n2c(=O)[nH]c3ccccc32)CC1)c1ccc(F)cc1 [BENPERIDOL] | > 20 µM | > 20 µM
NC(CO)C(=O)NNCc1ccc(O)c(O)c1O (centres undefined) [BENSERAZIDE] | > 20 µM | > 20 µM
O=C1CN=C(c2ccccc2)c2c(sc3c2CCCC3)N1 [BENTAZEPAM] | > 20 µM | > 20 µM
N/C(=N\C(=O)c1nc(Cl)c(N)nc1N)NCc1ccccc1 [BENZAMIL] | > 20 µM | > 20 µM
O=C1c2ccccc2-c2cccc3cccc1c23 [BENZANTHRONE] | > 20 µM | > 20 µM
CCc1oc2ccccc2c1C(=O)c1cc(Br)c(O)c(Br)c1 [BENZBROMARONE] | > 20 µM | > 20 µM
O=C1CCC(c2ccccc2)(C2CCN(Cc3ccccc3)CC2)C(=O)N1 (centres undefined) [BENZETIMIDE] | > 20 µM | > 20 µM
CC[N+]1(CC)CCC(OC(=O)C(O)(c2ccccc2)c2ccccc2)C1 (centres undefined) [BENZILONIUM] | > 20 µM | > 20 µM
c1ccc(Cn2cc(CCc3ccncc3)c3ccccc32)cc1 [BENZINDOPYRINE] | > 20 µM | > 20 µM
CCc1oc2ccccc2c1C(=O)c1cc(I)c(O)c(I)c1 [BENZIODARONE] | > 20 µM | > 20 µM
CCOC(=O)c1ccc(N)cc1 [BENZOCAINE] | > 20 µM | > 20 µM
O=C(O)c1ccccc1 [BENZOIC ACID] | > 20 µM | > 20 µM
O=C(c1ccccc1)C(O)c1ccccc1 (centres undefined) [BENZOIN] | > 20 µM | > 20 µM
CCCCNc1ccc(C(=O)OCCOCCOCCOCCOCCOCCOCCOCCOCCOC)cc1 [BENZONATATE] | > 20 µM | > 20 µM
O=C(c1ccccc1)c1ccccc1 [BENZOPHENONE] | > 20 µM | > 20 µM
c1ccc2sc(SSc3nc4ccccc4s3)nc2c1 [BENZOTHIAZYL DISULFIDE] | > 20 µM | > 20 µM
O=C(N[C@@H](Cc1c[nH]c2ccccc12)C(=O)O)c1ccc(Cl)cc1 [BENZOTRIPT] | > 20 µM | > 20 µM
O=C(Oc1cccc2cccnc12)c1ccccc1 [BENZOXIQUINE] | > 20 µM | > 20 µM
O=C(OOC(=O)c1ccccc1)c1ccccc1 [BENZOYL PEROXIDE] | > 20 µM | > 20 µM
O=C(Nc1ccc(C(=O)O)c(O)c1)c1ccccc1 [BENZOYLPAS] | > 20 µM | > 20 µM
CCN(CC)C(=O)C1CN2CCc3cc(OC)c(OC)cc3C2CC1OC(C)=O (centres undefined) [BENZQUINAMIDE] | > 20 µM | > 20 µM
NS(=O)(=O)c1cc2c(cc1Cl)N=C(CSCc1ccccc1)NS2(=O)=O [BENZTHIAZIDE] | > 20 µM | > 20 µM
CN(C)CCCOc1nn(Cc2ccccc2)c2ccccc12 [BENZYDAMINE] | > 20 µM | > 20 µM

SMILES | IC50 | IC50 (read-out: pIC50 (converted))
O=C(OCc1ccccc1)c1ccccc1 [BENZYL BENZOATE] | > 20 µM | > 20 µM
NNCc1ccccc1 [BENZYLHYDRAZINE] | > 20 µM | > 20 µM
C[N+](C)(CCOc1ccccc1)Cc1ccccc1 [BEPHENIUM] | > 20 µM | > 20 µM
CC(C)COCC(CN(Cc1ccccc1)c1ccccc1)N1CCCC1 (centres undefined) [BEPRIDIL] | > 20 µM | > 20 µM
COc1ccc2cc3[n+](cc2c1OC)CCc1cc2c(cc1-3)OCO2 [BERBERINE] | > 20 µM | > 20 µM
COc1c2ccoc2cc2oc(=O)ccc12 [BERGAPTEN] | > 20 µM | > 20 µM
Cc1ccc2c(c1)CC(=O)c1cc(C(C)C(=O)O)ccc1O2 (centres undefined) [BERMOPROFEN] | > 20 µM | > 20 µM
N[C@@H]1CCCCN(c2c(F)cc3c(=O)c(C(=O)O)cn(C4CC4)c3c2Cl)C1 [BESIFLOXACIN] | > 20 µM | > 20 µM
Nc1ncc2ncn(CC3(OCP(=O)(O)O)CC3)c2n1 [BESIFOVIR] | > 20 µM | > 20 µM
COc1cc2c(c(OC)c1OC)-c1c(cc3c(c1OC)OCO3)C[C@H](C)[C@@](C)(O)C2 [BESIGOMSIN] | > 20 µM | > 20 µM
CC[C@H](CC[C@@H](C)[C@H]1CC[C@H]2[C@@H]3CC=C4C[C@@H](O)CC[C@]4(C)[C@H]3CC[C@]12C)C(C)C [BETA-SITOSTEROL] | > 20 µM | > 20 µM
CC[C@H](OC(C)=O)C(C[C@@H](C)N(C)C)(c1ccccc1)c1ccccc1 [BETACETYLMETHADOL] | > 20 µM | > 20 µM
OC[C@H]1O[C@@H]2O[C@H]3[C@H](O)[C@@H](O)[C@@H](O[C@H]4[C@H](O)[C@@H](O)[C@@H](O[C@H]5[C@H](O)[C@@H](O)[C@@H](O[C@H]6[C@H](O)[C@@H](O)[C@@H](O[C@H]7[C@H](O)[C@@H](O)[C@@H](O[C@H]8[C@H](O)[C@@H](O)[C@@H](O[C@H]1[C@H](O)[C@H]2O)O[C@@H]8CO)O[C@@H]7CO)O[C@@H]6CO)O[C@@H]5CO)O[C@@H]4CO)O[C@@H]3CO [BETADEX] | > 20 µM | > 20 µM
CNCCc1ccccn1 [BETAHISTINE] | > 20 µM | > 20 µM
C[N+](C)(C)CC(=O)O [BETAINE] | > 20 µM | > 20 µM
CC[C@H](O)C(C[C@@H](C)N(C)C)(c1ccccc1)c1ccccc1 [BETAMETHADOL] | > 20 µM | > 20 µM
CCC(=O)OCC(=O)[C@@]1(OC(=O)CC)[C@@H](C)C[C@H]2[C@@H]3CCC4=CC(=O)C=C[C@]4(C)[C@@]3(F)[C@@H](O)C[C@@]21C [BETAMETHASONE DIPROPIONATE] | > 20 µM | > 20 µM
O=C(O)CCNC(=O)c1ccccc1 [BETAMIPRON] | > 20 µM | > 20 µM
Oc1ccc2ccccc2c1 [BETANAPHTHOL] | > 20 µM | > 20 µM
CC(C)NCC(O)COc1ccc(CCOCC2CC2)cc1 (centres undefined) [BETAXOLOL] | > 20 µM | > 20 µM
NCCc1cc[nH]n1 [BETAZOLE] | > 20 µM | > 20 µM
CC(C[N+](C)(C)C)OC(N)=O (centres undefined) [BETHANECHOL] | > 20 µM | > 20 µM
COc1ccc(NC(=O)c2ccc(C(=N)N(C)C)cc2)c(C(=O)Nc2ccc(Cl)cn2)c1 [BETRIXABAN] | > 20 µM | > 20 µM
C=C(C)[C@@H]1CC[C@]2(CO)CC[C@]3(C)[C@H](CC[C@@H]4[C@@]5(C)CC[C@H](O)C(C)(C)[C@@H]5CC[C@]43C)[C@@H]12 [BETULIN] | > 20 µM | > 20 µM
